Results from PMC4279406, “Simultaneous targeting of PI3Kδ and a PI3Kδ-dependent MEK1/2-Erk1/2 pathway for therapy in pediatric B-cell acute lymphoblastic leukemia” (Oncotarget, 2014).

Experiments:
Type in all cases: cell-based, human
[1] = test system: Raji cells; assay: Annexin V-FITC/PI apoptosis assay (FACS); conditions: 72 h
Excerpt: (§1) Figure 3 PI3Kδ inhibition led to blockade of B cell leukemia cells proliferation via induction of cell cycle arrest and apoptosis Raji cells treated with X-370 for indicated times and at serial diluted concentrations were subjected to Annexin V-FITC/PI staining (A) and PI staining (B) and FACS analysis to show cell apoptosis and cell cycle distribution respectively. (C) X-370 inhibited proliferation of human leukemia primary cells. Freshly isolated human primary mononuclear cells from bone marrow samples of patients were treated with X-370 for 72 h and cell viability was assayed using CCK-8 assay. IC50s of each sample were plotted where 10 μM was assigned to specimens with IC50 >10 μM. Each symbol represents an individual patient sample. […]
Apoptosis was measured with annexin V–fluorescein isothiocyanate (FITC) /Propidium iodide (PI) kit (KeyGEN Biotech, Nanjing, China) as previously described. Fluorescence was acquired with a FACSCalibur instrument (BD Biosciences, CA) and analyzed using BD CellQuest Pro software.

[2] = test system: primary B-ALL cells; assay: Viability of primary mononuclear cells from pediatric patients (CCK-8); conditions: 72 h, 8/13 specimens
Excerpt: as §1
(§2) Cell viability was assessed using Cell Counting Kit (CCK-8, Dojindo, Japan) following the manufacturer's protocol and OD values were measured with a Spectramax M5 plate reader (Molecular Devices, Sunnyvale, CA)[45].
(§3) Bone marrow was obtained from patients after provision of informed consent using guidelines approved by the Committee on the Use of Human Subjects in Research at Shanghai Jiaotong University or Shanghai Fudan University under a protocol approved by the Review Board. […] Cell viability and phosphorylated Akt and Erk1/2 were then detected.

[3] = test system: primary non B-ALL leukemia cells; assay: as above; conditions: 72 h, 1/7 specimens
Excerpt: as §1, §2, §3

[4] = test system: primary B-ALL cells; assay: Phosphorylated Akt and Erk1/2 in primary B-ALL cells (Western blot); conditions: 72 h
Method: Figure 6 X-370-sensitive human primary B-ALL cells contained PI3K-dependent Erk1/2 phosphorylation and combination of AZD6244 and X-370 enhanced inhibitory activity against resistant specimens (A) X-370-sensitive human primary B-ALL cells contained PI3K-dependent Erk1/2 phosphorylation. Primary B-ALL cells were treated with series diluted X-370 for 72 h. Phosphorylation of Akt and Erk1/2 were detected. (B). Combination of AZD6244 and X-370 enhanced inhibitory activity against resistant specimens. X-370 resistant primary B-ALL cells were treated with 1 μM X-370 alone or cocurently with MEK1/2 inhibitor AZD6244 (1 μM) for 72 h and cell viability were tested by CCK-8 assay. Cell viability of each treated group was compared with unpaired t-tests. *: P < 0.05. (C) X-370-resistant primary B-ALL cells were treated with X-370 in the presence of 1 μM AZD6244 or not for 72 h and phosphorylated Akt and Erk1/2 were then detected by Western blot.
as §3

Q: For `O=C(N1CCCC1)N1CCC(n2cnc3c(-n4c(C(F)F)nc5ccccc54)nc(N4CCOCC4)nc32)CC1` [X-370], which “cells that underwent apoptosis” value ([1]; 10 μM) is on record?
A: The value was “about 28%”.

Q: And the “concentration at which apoptotic cells were detectable” value [1]?
A: The value was no less than 5 µM.

Q: And the “B-ALL specimens sensitive with IC50<1 μM” value [2]?
A: The value was 61%.

Q: And the “non B-ALL specimens sensitive with IC50<1 μM” value [3]?
A: The value was 14%.

Q: What about the “phosphorylated Erk1/2” value ([4]; resistant (IC50>1 μM) samples) of the same molecule?
A: Its value is “remained unaffected”.

Q: And the “phosphorylated Akt and Erk1/2” value ([4]; sensitive (IC50<1 μM) specimens, < 1 μM)?
A: Its value is “dramatically decreased”.
